Values quoted from earlier work as cited in patent publication US9114107B2, “Compositions for inhibiting virus entry and promoting virolysis, and methods thereof” (priority 2010, dated 2015).

System: virus challenge
Settings: cited from earlier work

## COc1ccnc2[nH]cc(C(=O)C(=O)N3CCN(C(=O)c4ccccc4)C[C@H]3C)c12 [BMS-806, (R)-1-(4-benzoyl-2-methylpiperazin-1-yl)-2-(4-methoxy-1H-pyrrolo[2,3-b]pyridin-3-yl)ethane-1,2-dione]
Biopsy after multiple applications
  local irritation or inflammation of macaque vagina: No local irritation or inflammation was observed
Macaques challenged with virus 2-6 hours after application
  animals protected: 3 of 5
